Reference: patent publication US8048881B2, “Pyrimidine derivatives and their use as P2Y12 receptor antagonists” (Actelion Pharmaceuticals Ltd., priority 2005, dated 2011)
Counter-ions that a name gives are not always drawn.

target: T1, human P2Y12 receptor (Homo sapiens, UniProt Q9H244); assay: P2Y12 receptor binding assay; details: CHO cells with recombinant expression of the human P2Y12 receptor; tritium-labeled 2-methyl-S-ADP; incubation at room temperature for 2 hours
T1 construct: expressed in transfected cells; host or cells: Chinese Hamster Ovary (CHO) cells
Method: P2Y12 Receptor Binding Assay
Chinese Hamster Ovary (CHO) cells with recombinant expression of the human P2Y12 receptor were cultured in 24 well cell-culture plates. Cells were washed three times with binding buffer (50 mM Tris pH 7.4, 100 mM NaCl, 1 mM EDTA, 0.5% BSA). The cells were then incubated with 0.5 ml per well binding buffer containing tritium-labeled 2-methyl-thio-adenosine 5′-diphosphate (2-methyl-S-ADP) (between 100'000 and 300'000 dpm per well) and various concentrations of test compounds. After incubation at room temperature for 2 hours, cells were washed three times with binding buffer. Then, cells were solubilized by addition of 0.5 ml solubilization buffer (SDS, NaOH, EDTA). The content of each well was then transferred into beta-counter vials and 2.0 ml of Ultima Gold Scintillation liquid was added.

T1 sequence (Q9H244 whole entry): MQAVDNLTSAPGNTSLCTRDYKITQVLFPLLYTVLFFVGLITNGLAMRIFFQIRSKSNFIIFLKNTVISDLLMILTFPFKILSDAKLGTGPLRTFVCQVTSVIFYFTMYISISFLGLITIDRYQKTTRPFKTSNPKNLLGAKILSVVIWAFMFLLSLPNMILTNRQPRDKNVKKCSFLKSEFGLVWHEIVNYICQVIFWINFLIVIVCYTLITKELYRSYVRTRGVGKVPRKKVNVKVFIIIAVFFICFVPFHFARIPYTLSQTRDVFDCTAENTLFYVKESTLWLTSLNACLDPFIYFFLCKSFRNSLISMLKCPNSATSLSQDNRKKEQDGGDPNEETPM

SMILES	IC50 [nM]
CCOCc1cc(C(=O)N[C@@H](CCC(=O)O)C(=O)N2CCN(C(=O)OCC)CC2)nc(-c2ccccc2)n1 [Example 430, 4-{(S)-4-carboxy-2-[(6-ethoxymethyl-2-phenyl-pyrimidine-4-carbonyl)-amino]-butyryl}-piperazine-1-carboxylic acid ethyl ester]	188
CCOC(=O)N1CCN(C(=O)[C@H](CCC(=O)O)NC(=O)c2cc(CN(C)Cc3ccccc3)nc(-c3ccccc3)n2)CC1 [Example 362, 4-[(S)-2-({6-[(benzyl-methyl-amino)-methyl]-2-phenyl-pyrimidine-4-carbonyl}-amino)-4-carboxy-butyryl]-piperazine-1-carboxylic acid ethyl ester]	86
CCOC(=O)N1CCN(C(=O)[C@H](CCC(=O)OC(C)(C)C)NC(=O)c2cc(OCC(=O)O)nc(-c3ccccc3)n2)CC1 [Example 132, 4-{(S)-4-tert-butoxycarbonyl-2-[(6-carboxymethoxy-2-phenyl-pyrimidine-4-carbonyl)-amino]-butyryl}-piperazine-1-carboxylic acid ethyl ester]	8110
CCOC(=O)N1CCN(C(=O)[C@H](CCC(=O)O)NC(=O)c2cc(C#CC(O)CC)nc(-c3ccccc3)n2)CC1 (stereo partly drawn) [Example 261, 4-((S)-4-carboxy-2-{[6-(3-hydroxy-pent-1-ynyl)-2-phenyl-pyrimidine-4-carbonyl]-amino}-butyryl)-piperazine-1-carboxylic acid ethyl ester]	126
CCCCc1cc(C(=O)N[C@@H](CCC(=O)O)C(=O)N2CCN(C(=O)OCC)CC2)nc(-c2ccccc2)n1 [Example 88, 4-{(S)-2-[(6-butyl-2-phenyl-pyrimidine-4-carbonyl)-amino]-4-carboxy-butyryl}-piperazine-1-carboxylic acid ethyl ester]	98
CCOC(=O)N1CCN(C(=O)[C@H](Cc2ccc(C(=O)O)cc2)NC(=O)c2cc(NC(C)C)nc(-c3ccccc3)n2)CC1 [Example 115, 4-{(S)-3-(4-carboxy-phenyl)-2-[(6-isopropylamino-2-phenyl-pyrimidine-4-carbonyl)-amino]-propionyl}-piperazine-1-carboxylic acid ethyl ester]	390
CCOC(=O)N1CCN(C(=O)[C@H](CCc2nnn[nH]2)NC(=O)c2cc(OC3CCCC3)nc(-c3ccccc3)n2)CC1 [Example 19, 4-[(S)-2-[(6-cyclopentyloxy-2-phenyl-pyrimidine-4-carbonyl)-amino]-4-(1H-tetrazol-5-yl)-butyryl]-piperazine-1-carboxylic acid ethyl ester]	127
CCCSc1cc(C(=O)N[C@@H](CCC(=O)O)C(=O)N2CCN(C(=O)OCC)CC2)nc(-c2ccccc2)n1 [Example 247, 4-{(S)-4-carboxy-2-[(2-phenyl-6-propylsulfanyl-pyrimidine-4-carbonyl)-amino]-butyryl}-piperazine-1-carboxylic acid ethyl ester]	142
CCOC(=O)N1CCN(C(=O)[C@H](CCC(=O)O)NC(=O)c2cc(CS(=O)(=O)CC)nc(-c3ccccc3)n2)CC1 [Example 375, 4-{(S)-4-carboxy-2-[(6-ethanesulfonylmethyl-2-phenyl-pyrimidine-4-carbonyl)-amino]-butyryl}-piperazine-1-carboxylic acid ethyl ester]	108
CCOC(=O)N1CCN(C(=O)[C@H](CCC(=O)O)NC(=O)c2cc(/C=C/C(C)O)nc(-c3ccccc3)n2)CC1 (stereo partly drawn) [Example 267, 4-((S)-4-carboxy-2-{[6-((E)-3-hydroxy-but-1-enyl)-2-phenyl-pyrimidine-4-carbonyl]-amino}-butyryl)-piperazine-1-carboxylic acid ethyl ester]	216
CCOC(=O)N1CCN(C(=O)[C@H](CCC(=O)O)NC(=O)c2cc(OCC3CC3)nc(-c3ccccc3)n2)CC1 [Example 27, 4-{(S)-4-carboxy-2-[(6-cyclopropylmethoxy-2-phenyl-pyrimidine-4-carbonyl)-amino]-butyryl}-piperazine-1-carboxylic acid ethyl ester]	193
CCOC(=O)N1CCN(C(=O)[C@H](CCC(=O)O)NC(=O)c2cc(CCC(C)(C)O)nc(-c3ccccc3)n2)CC1 [Example 266, 4-((S)-4-carboxy-2-{[6-(3-hydroxy-3-methyl-butyl)-2-phenyl-pyrimidine-4-carbonyl]-amino}-butyryl)-piperazine-1-carboxylic acid ethyl ester]	273
CCOC(=O)N1CCN(C(=O)[C@H](CCC(=O)O)NC(=O)c2cc(CSC3CCCC3)nc(-c3ccccc3)n2)CC1 [Example 378, 4-{(S)-4-carboxy-2-[(6-cyclopentylsulfanylmethyl-2-phenyl-pyrimidine-4-carbonyl)-amino]-butyryl}-piperazine-1-carboxylic acid ethyl ester]	157
CCOC(=O)N1CCN(C(=O)[C@H](CCC(=O)O)NC(=O)c2cc(N(C)C)nc(-c3ccccc3)n2)CC1 [Example 79, 4-{(S)-4-carboxy-2-[(6-dimethylamino-2-phenyl-pyrimidine-4-carbonyl)-amino]-butyryl}-piperazine-1-carboxylic acid ethyl ester triflate salt]	121
CCOC(=O)N1CCN(C(=O)[C@H](CCC(=O)O)NC(=O)c2cc(OC3CCCC3)nc(-c3ccccc3)n2)CC1 [Example 1, 4-{(S)-4-carboxy-2-[(6-cyclopentyloxy-2-phenyl-pyrimidine-4-carbonyl)-amino]-butyryl}-piperazine-1-carboxylic acid ethyl ester]	117
CCOC(=O)N1CCN(C(=O)[C@H](CCC(=O)O)NC(=O)c2cc(N3CCC[C@@H]3COC)nc(-c3ccccc3)n2)CC1 [Example 324, 4-((S)-4-carboxy-2-{[6-((R)-2-methoxymethyl-pyrrolidin-1-yl)-2-phenyl-pyrimidine-4-carbonyl]-amino}-butyryl)-piperazine-1-carboxylic acid ethyl ester formate salt]	61
CCOC(=O)N1CCN(C(=O)[C@H](CCC(=O)O)NC(=O)c2cc(NCCCN3CCOCC3)nc(-c3ccccc3)n2)CC1 [Example 66, 4-((S)-4-carboxy-2-{[6-(3-morpholin-4-yl-propylamino)-2-phenyl-pyrimidine-4-carbonyl]-amino}-butyryl)-piperazine-1-carboxylic acid ethyl ester triflate salt]	202
CCOC(=O)N1CCN(C(=O)[C@H](CCCC(=O)O)NC(=O)c2cc(-c3ccccc3)nc(-c3ccccc3)n2)CC1 [Example 121, 4-{(S)-5-carboxy-2-[(2,6-diphenyl-pyrimidine-4-carbonyl)-amino]-pentanoyl}-piperazine-1-carboxylic acid ethyl ester]	127
CCOC(=O)N1CCN(C(=O)[C@H](CCC(=O)O)NC(=O)c2cc(CCO)nc(-c3ccccc3)n2)CC1 [Example 408, 4-((S)-4-carboxy-2-{[6-(2-hydroxy-ethyl)-2-phenyl-pyrimidine-4-carbonyl]-amino}-butyryl)-piperazine-1-carboxylic acid ethyl ester]	207
CCOC(=O)N1CCN(C(=O)[C@H](CCC(=O)O)NC(=O)c2cc(C)nc(-c3cccc(C)c3)n2)CC1 [Example 105, 4-{(S)-4-carboxy-2-[(6-methyl-2-m-tolyl-pyrimidine-4-carbonyl)-amino]-butyryl}-piperazine-1-carboxylic acid ethyl ester]	940
CCOC(=O)N1CCN(C(=O)[C@H](CCC(=O)O)NC(=O)c2cc(-c3cccc(C)c3)nc(-c3ccccc3)n2)CC1 [Example 94, 4-{(S)-4-carboxy-2-[(2-phenyl-6-m-tolyl-pyrimidine-4-carbonyl)-amino]-butyryl}-piperazine-1-carboxylic acid ethyl ester]	200
CCCC(CCC)C(=O)Nc1cc(C(=O)N[C@@H](CCC(=O)O)C(=O)N2CCN(C(=O)OCC)CC2)nc(-c2ccccc2)n1 [Example 341, 4-((S)-4-carboxy-2-{[2-phenyl-6-(2-propyl-pentanoylamino)-pyrimidine-4-carbonyl]-amino}-butyryl)-piperazine-1-carboxylic acid ethyl ester]	169
CCOC(=O)N1CCN(C(=O)[C@H](CC(=O)O)NC(=O)c2cc(OC3CCCC3)nc(-c3ccccc3)n2)CC1 [Example 2, 4-{(S)-3-carboxy-2-[(6-cyclopentyloxy-2-phenyl-pyrimidine-4-carbonyl)-amino]-propionyl}-piperazine-1-carboxylic acid ethyl ester]	243
CC(C)(C)NC(=O)N1CCN(C(=O)[C@H](CCC(=O)O)NC(=O)c2cc(OC3CCCC3)nc(-c3ccccc3)n2)CC1 [Example 435, (S)-5-(4-tert-butylcarbamoyl-piperazin-1-yl)-4-[(6-cyclopentyloxy-2-phenyl-pyrimidine-4-carbonyl)-amino]-5-oxo-pentanoic acid]	94
CCOC(=O)N1CCN(C(=O)[C@H](CCC(=O)O)NC(=O)c2cc(C(C)=O)nc(-c3ccccc3)n2)CC1 [Example 402, 4-{(S)-2-[(6-acetyl-2-phenyl-pyrimidine-4-carbonyl)-amino]-4-carboxy-butyryl}-piperazine-1-carboxylic acid ethyl ester]	72
CCOC(=O)N1CCN(C(=O)[C@H](CCC(=O)O)NC(=O)c2cc(N3CCOCC3)nc(-c3ccccc3)n2)CC1 [Example 225, 4-{(S)-4-carboxy-2-[(6-morpholin-4-yl-2-phenyl-pyrimidine-4-carbonyl)-amino]-butyryl}-piperazine-1-carboxylic acid ethyl ester formate salt]	100
